≈ marks a conversion by molar mass, not a printed value.
Assays:
[1] = Microsomal stability, RLM; assay type: in vitro ADME; settings: rat liver microsomes
Method: (§1) All in vitro experiments like protein binding, microsomal stability, cell cytotoxicity were performed as per study protocols of respective experiments.

[2] = Equilibrium solubility in pH 6.8 0.01M phosphate buffer by HPLC; assay type: physicochemical; settings: pH6.8 0.01M potassium dihydrogen phosphate buffer
[3] = Intravenous and per oral pharmacokinetics in male Balb/c mice; assay type: in vivo; settings: for Bioavailability (% F): PO dose (50 mg/kg) vs IV 10 mg/kg
Method: The husbandry conditions were maintained as described in animal facility SOPs during the study period. Animals procured were quarantined for 7 days followed by acclimatization for 5 days. The study was carried out for two days. Male Balb/c mice of age 10-12 weeks (18-25 g) and male Sprague Dawley rats 8-10 weeks (220-280 g) were used. The food was with held for a period of 4-12 hr prior to dosing and returned to all animals 4h post dosing and water supplied ad libitum. The doses of FT1518 were as follows: Mice: 10 mg/kg intravenous (i.v) and 50 mg/kg oral (p.o); rat—5 mg/kg intravenous (i.v) and 10 mg/kg oral (p.o). The formulation used in i.v and p.o studies were 10% dimethylsulfoxide (DMSO)+30% polyethyleneglycol 400 (PEG400)+60% water and 0.5% methylcellulose (MC)+0.1% tween 80. Blood was collected at the predetermined time points in mice (cardiac puncture) and Jugular vein (rats) over a period of 24h in eppendorf tubes containing K2EDTA as anticoagulant. The plasma was isolated from the blood and stored at −80° C. until bioanalysis. Species: BALB/C mice Gender: Male Dose: IV (10 mg/kg), Single dose • PO (50 mg/kg), single dose Formulation: • IV—DMSO: PEG400:Water (10:30:60 v/v) • PO— 0.5% methylcellulose and 0.1% Tween 80 in water Sampling Time Points: • IV: 5 min, 30 min, 1 h, 2, 4, 8 and 24 h post dose • PO: 10 min, 30 min, 1 h, 2, 4, 8 and 24 h post dose. PK analysis: Phoenix software (Pharsight product). Noncompartmental Analysis (NCA) was used to estimate the PK parameters. FIG. 56 depicts a pharmacokinetic profile of FT-1518 base in mice. Table 31 summarizes PK parameters used in a pharmacokinetic profile with intravenous dose in mice and Table 32 summarizes PK parameters used in a pharmacokinetic profile with per oral dose in mice.

Human Plasma = assay: Plasma protein binding, human; assay type: in vitro ADME; settings: for % Bound, Human Plasma: 10 μM (n = 4)
Method: as §1

[4] = pH vs solubility study (RP-HPLC); assay type: physicochemical
Method: In 2 mL volume of buffers (ranging from pH 1.2 to 7.4) and purified water, compound (either free base or esylate or oxalate) was added with increments until the compound doesn't dissolve further in the medium and compound remains undissolved or excess in the solution. The samples were kept for overnight at ambient room temperature to saturate/equilibrate. The dispersions were filtered through 0.45 μm PVDF or nylon membrane filters and the filtrates were analysed using RP-HPLC for determination of solubility of compounds in various buffers and purified water.

Mouse plasma = assay: Plasma protein binding, mouse; assay type: in vitro ADME; settings: for % Bound, Mouse plasma: 10 μM (n = 4)
Method: as §1

[5] = 1 week stability of shortlisted salts at 40° C./75% RH, open; assay type: physicochemical; settings: for pH of 2% w/v aqueous dispersion/solution / state of 2% w/v aqueous dispersion/solution: 2% w/v in water; for % purity / XRD: after 7 days at 40° C./75% RH, open; for % purity: HPLC; for XRD: physical form vs initial
[6] = Microsomal stability, PHLM; assay type: in vitro ADME; settings: pooled human liver microsomes
Method: as §1

[7] = Intravenous and per oral pharmacokinetics in male Sprague Dawley rats; assay type: in vivo, Sprague Dawley (SD) rats; settings: for Bioavailability (% F): PO dose (10 mg/kg) vs IV 5 mg/kg
Method: The husbandry conditions were maintained as described in animal facility SOPs during the study period. Animals procured were quarantined for 7 days followed by acclimatization for 5 days. The study was carried out for two days. Male Balb/c mice of age 10-12 weeks (18-25 g) and male Sprague Dawley rats 8-10 weeks (220-280 g) were used. The food was with held for a period of 4-12 hr prior to dosing and returned to all animals 4h post dosing and water supplied ad libitum. The doses of FT1518 were as follows: Mice: 10 mg/kg intravenous (i.v) and 50 mg/kg oral (p.o); rat—5 mg/kg intravenous (i.v) and 10 mg/kg oral (p.o). The formulation used in i.v and p.o studies were 10% dimethylsulfoxide (DMSO)+30% polyethyleneglycol 400 (PEG400)+60% water and 0.5% methylcellulose (MC)+0.1% tween 80. Blood was collected at the predetermined time points in mice (cardiac puncture) and Jugular vein (rats) over a period of 24h in eppendorf tubes containing K2EDTA as anticoagulant. The plasma was isolated from the blood and stored at −80° C. until bioanalysis.
Intravenous and Per Oral Pharmacokinetic Profile of FT1518 (Base); FT1518-Esylate Salt and FT1518-Oxalate Salt in Male Sprague Dawley (SD) Rats Species: SD rats Gender: Male Dose: IV (5 mg/kg), Single dose • PO (10 mg/kg), single dose Formulation: • IV—DMSO: PEG400:Water (10:30:60 v/v) • PO— 0.5% methylcellulose and 0.1% Tween 80 in water Sampling Time Points: • IV: 5 min, 15 min, 30 min, 1 h, 2, 4, 8 and 24 h post dose • PO: 10 min, 15 min, 30 min, 1 h, 2, 4, 8 and 24 h post dose. PK analysis: Phoenix software (Pharsight product). Noncompartmental Analysis (NCA) was used to estimate the PK parameters

[8] = test system: U-87 (giloblastoma, epithelial); assay: Anti-proliferative effect, U-87; assay type: cell-based
Method: as §1

[9] = Microsomal stability, MLM; assay type: in vitro ADME; settings: 3 μM (n = 3), mice liver microsomes
Method: as §1

[10] = PO dose (50 mg/kg), single dose, male Balb/c mice, 50 mg/kg
[11] = PO dose (10 mg/kg), single dose, male SD rats, 10 mg/kg
[12] = male, Balb/c, mouse, plasma, po, 50 mg/kg, PO dose (50 mg/kg), single dose, male Balb/c mice
[13] = IV dose (10 mg/kg), single dose, male Balb/c mice
[14] = IV dose (5 mg/kg), single dose, male SD rats

| Structure (SMILES) | Invitro T1/2, RLM ([1]; 3 μM (n = 3)) | stability in RLM [1] | Solubility in pH 6.8 buffer [2] | Bioavailability (% F) ([3]; male Balb/c mice) | AUC0-∞ [3, 10] | Cmax [3, 10] | Tmax [3, 10] | plasma protein binding, human plasma (Human Plasma) | % Bound, Human Plasma (Human Plasma) | plasma protein binding, mouse plasma (Mouse plasma) | % Bound, Mouse plasma (Mouse plasma) | pH of 2% w/v aqueous dispersion/solution [5] | state of 2% w/v aqueous dispersion/solution [5] | % purity [5] | XRD [5] | Invitro T1/2, PHLM ([6]; 3 μM (n = 3)) | stability in PHLM [6] | Bioavailability (% F) ([7]; male SD rats) | Cmax [7, 11] | IC50 [8] | also measured |
| --- | --- | --- | --- | --- | --- | --- | --- | --- | --- | --- | --- | --- | --- | --- | --- | --- | --- | --- | --- | --- | --- |
| CCC(CC)n1cnc2c(-c3cnc(N)cn3)nc(N3CC4CCC(C3)O4)nc21 [FT-1518-Oxalate] | >60 min | ✓ FT1518, FT 1518-Esylate and FT1518-Oxalate was highly stable in PHLM and RLM | 10.21 mg/mL | 76 % F | 28876 ± 7762 ng·h/mL | 8444 ± 1473 ng/mL | 18 ± 12 min | ✓ FT1518, FT1518-Esylate and FT1518-Oxalate showed moderate plasma protein binding in both mouse and human plasma | 95.54% | ✓ FT1518, FT1518-Esylate and FT1518-Oxalate showed moderate plasma protein binding in both mouse and human plasma | 91.79% | 2.6 | dispersion | 97.04% | Same as initial form | >60 min | ✓ FT1518, FT 1518-Esylate and FT1518-Oxalate was highly stable in PHLM and RLM | 68% | 1980 ng/mL | > 10 µM | bioavailability in comparison to esylate salt and base ([3]; PO 50 mg/kg, Balb/c male mice): FT-1518-oxalate salt showed high bioavailability in comparison to esylate salt and base.; T1/2 [3, 10]: 3.5 ± 1.9 h; Solubility ([4]; Water, overnight, ambient room temperature, listed as Oxalate salt): 11.03 mg/mL; Solubility ([4]; pH 1.2 HCl, listed as Oxalate salt): >52.76 mg/mL; Solubility ([4]; pH 3.0 Citrate buffer, listed as Oxalate salt): 20.25 mg/mL; Solubility ([4]; pH 4.0 Acetate buffer, listed as Oxalate salt): 1.05 mg/mL; Solubility ([4]; pH 5.0 Acetate buffer, listed as Oxalate salt): 0.14 mg/mL; Solubility ([4]; pH 6.8 Phosphate buffer, listed as Oxalate salt): 5.28 mg/mL; Solubility ([4]; pH 7.4 Phosphate buffer, listed as Oxalate salt): 0.76 mg/mL; Invitro T1/2, MLM [9]: 46 min |
| CCC(CC)n1cnc2c(-c3cnc(N)cn3)nc(N3CC4CCC(C3)O4)nc21 [FT-1518-Esylate] |  | ✓ FT1518, FT 1518-Esylate and FT1518-Oxalate was highly stable in PHLM and RLM | 77.98 mg/mL | 62 % F |  |  |  | ✓ FT1518, FT1518-Esylate and FT1518-Oxalate showed moderate plasma protein binding in both mouse and human plasma |  | ✓ FT1518, FT1518-Esylate and FT1518-Oxalate showed moderate plasma protein binding in both mouse and human plasma |  | 2.1 | soluble | 98.07% | Same as initial form |  | ✓ FT1518, FT 1518-Esylate and FT1518-Oxalate was highly stable in PHLM and RLM | > 100% |  | > 10 µM | half-life at 3 μM ([1]; 3 μM (n = 3), read-out: Invitro T1/2, RLM): > 60 min; AUC(0-inf) [3, 12]: 23700 ± 9250 ng·h/mL; half-life [3, 12]: 204 ± 72 min; Cmax ([3]; male, Balb/c, mouse, plasma, po, 50 mg/kg, PO dose (50 mg/kg), single dose, male Balb/c mice, read-out: Cmax): 8190 ± 891 ng/mL; Tmax ([3]; mouse, plasma, PO dose (50 mg/kg), single dose, male Balb/c mice, read-out: Tmax): 18 ± 12 min; Solubility ([4]; Water, overnight, ambient room temperature, listed as Esylate salt): >539.39 mg/mL; Solubility ([4]; pH 1.2 HCl, listed as Esylate salt): >587.07 mg/mL; Solubility ([4]; pH 3.0 Citrate buffer, listed as Esylate salt): >76.38 mg/mL; Solubility ([4]; pH 4.0 Acetate buffer, listed as Esylate salt): 53.25 mg/mL; Solubility ([4]; pH 5.0 Acetate buffer, listed as Esylate salt): 0.84 mg/mL; Solubility ([4]; pH 6.8 Phosphate buffer, listed as Esylate salt): 79.08 mg/mL; Solubility ([4]; pH 7.4 Phosphate buffer, listed as Esylate salt): 40.8 mg/mL; half-life at 3 μM ([6]; 3 μM (n = 3), read-out: Invitro T1/2, PHLM): > 60 min; AUC ([7]; male, Sprague Dawley, rat, plasma, po, 10 mg/kg, PO dose (10 mg/kg), single dose, male SD rats, read-out: AUC (AU C0^.oo)): 9680 ng·h/mL; Cmax ([7]; male, Sprague Dawley, rat, plasma, po, 10 mg/kg, PO dose (10 mg/kg), single dose, male SD rats, read-out: Cmax): 1770 ng/mL; half-life at 3 μM ([9]; mouse, mouse liver microsomes, read-out: Invitro T1/2, MLM): 24 min |
| CCC(CC)n1cnc2c(-c3cnc(N)cn3)nc(N3CC4CCC(C3)O4)nc21 [FT-1518 base] | >60 min | ✓ FT1518, FT 1518-Esylate and FT1518-Oxalate was highly stable in PHLM and RLM |  | 68 % F | 25801 ± 404 ng·h/mL | 8761 ± 718 ng/mL | 12 min | ✓ FT1518, FT1518-Esylate and FT1518-Oxalate showed moderate plasma protein binding in both mouse and human plasma | 97.32% | ✓ FT1518, FT1518-Esylate and FT1518-Oxalate showed moderate plasma protein binding in both mouse and human plasma | 91.52% |  |  | 97.82% | Same as initial form | >60 min | ✓ FT1518, FT 1518-Esylate and FT1518-Oxalate was highly stable in PHLM and RLM | 44% | 1592 ng/mL | > 10 µM | Solubility in pH 6.8 buffer ([2]; listed as Free base of FT-1518): 0.02 mg/mL; clearance as % of mouse liver blood flow ([3]; IV 10 mg/kg, mice): ~30%; AUC0-∞ [3, 13]: 7637 ± 2021 ng·h/mL; Cl [3, 13]: 1.4 ± 0.5 L/h/kg; Solubility ([4]; Water, overnight, ambient room temperature, listed as Free base): 0.12 mg/mL (≈ 304 µM); Solubility ([4]; pH 1.2 HCl, listed as Free base): >50.25 mg/mL; Solubility ([4]; pH 3.0 Citrate buffer, listed as Free base): 2.11 mg/mL (≈ 5350 µM); Solubility ([4]; pH 4.0 Acetate buffer, listed as Free base): 0.34 mg/mL (≈ 862 µM); Solubility ([4]; pH 5.0 Acetate buffer, listed as Free base): 0.14 mg/mL (≈ 355 µM); Solubility ([4]; pH 6.8 Phosphate buffer, listed as Free base): 0.11 mg/mL (≈ 279 µM); Solubility ([4]; pH 7.4 Phosphate buffer, listed as Free base): 0.1 mg/mL (≈ 253 µM); clearance as % of SD rat liver blood flow ([7]; IV 5 mg/kg, SD rats): ~42%; AUC0-∞ [7, 14]: 3905 ± 1334 ng·h/mL; Cl [7, 14]: 1.4 ± 0.6 L/h/kg; Tmax ([7]; PO dose (10 mg/kg), single dose, male SD rats): 30 min; AUC (AU C0^.oo) [7, 11]: 3422 ± 684 ng·h/mL; Invitro T1/2, MLM [9]: 43 min |

Reference: patent publication US11820782B2, “Salt forms of amino pyrazine purine based selective kinase inhibitor” (FTG BIO LLC, priority 2018, dated 2023)
